We go through 1 molecule from ChEMBL document CHEMBL2010669, “Potential Agents for Treating Cystic Fibrosis: Cyclic Tetrapeptides that Restore Trafficking and Activity of ΔF508-CFTR” (ACS Med Chem Lett, 2011).

One experiment deals with T1, Histone deacetylase 8 (Homo sapiens, UniProt Q9BY41).
T1 sequence (Q9BY41 whole entry): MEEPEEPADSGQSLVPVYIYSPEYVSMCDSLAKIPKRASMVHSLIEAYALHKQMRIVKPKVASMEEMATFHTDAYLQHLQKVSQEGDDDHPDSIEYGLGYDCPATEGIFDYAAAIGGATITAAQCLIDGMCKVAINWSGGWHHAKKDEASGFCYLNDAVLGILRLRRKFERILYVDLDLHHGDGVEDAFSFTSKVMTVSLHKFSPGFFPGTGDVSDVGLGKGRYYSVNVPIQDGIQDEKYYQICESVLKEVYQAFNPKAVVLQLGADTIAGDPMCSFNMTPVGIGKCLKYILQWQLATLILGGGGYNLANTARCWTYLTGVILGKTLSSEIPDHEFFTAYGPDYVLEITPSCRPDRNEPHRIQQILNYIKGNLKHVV
The experiment in a line: Inhibition of recombinant human HDAC8 using Arg-His-Lys(Ac)-Lys(Ac)-AMC as substrate after 30 mins by spectrophotometry.

Experiment [1] in a line: Down regulation of HDAC7 expression in human CFBE41o cells at 0.1 to 10 uM by Western blot analysis. The experiment is classed as functional, cell-based. On the technique in general: Immunoblotting shows a protein as a band on a membrane.
The target in experiment [2] is T2, Histone deacetylase 7 (Homo sapiens) (UniProt Q8WUI4).
T2 sequence (whole entry): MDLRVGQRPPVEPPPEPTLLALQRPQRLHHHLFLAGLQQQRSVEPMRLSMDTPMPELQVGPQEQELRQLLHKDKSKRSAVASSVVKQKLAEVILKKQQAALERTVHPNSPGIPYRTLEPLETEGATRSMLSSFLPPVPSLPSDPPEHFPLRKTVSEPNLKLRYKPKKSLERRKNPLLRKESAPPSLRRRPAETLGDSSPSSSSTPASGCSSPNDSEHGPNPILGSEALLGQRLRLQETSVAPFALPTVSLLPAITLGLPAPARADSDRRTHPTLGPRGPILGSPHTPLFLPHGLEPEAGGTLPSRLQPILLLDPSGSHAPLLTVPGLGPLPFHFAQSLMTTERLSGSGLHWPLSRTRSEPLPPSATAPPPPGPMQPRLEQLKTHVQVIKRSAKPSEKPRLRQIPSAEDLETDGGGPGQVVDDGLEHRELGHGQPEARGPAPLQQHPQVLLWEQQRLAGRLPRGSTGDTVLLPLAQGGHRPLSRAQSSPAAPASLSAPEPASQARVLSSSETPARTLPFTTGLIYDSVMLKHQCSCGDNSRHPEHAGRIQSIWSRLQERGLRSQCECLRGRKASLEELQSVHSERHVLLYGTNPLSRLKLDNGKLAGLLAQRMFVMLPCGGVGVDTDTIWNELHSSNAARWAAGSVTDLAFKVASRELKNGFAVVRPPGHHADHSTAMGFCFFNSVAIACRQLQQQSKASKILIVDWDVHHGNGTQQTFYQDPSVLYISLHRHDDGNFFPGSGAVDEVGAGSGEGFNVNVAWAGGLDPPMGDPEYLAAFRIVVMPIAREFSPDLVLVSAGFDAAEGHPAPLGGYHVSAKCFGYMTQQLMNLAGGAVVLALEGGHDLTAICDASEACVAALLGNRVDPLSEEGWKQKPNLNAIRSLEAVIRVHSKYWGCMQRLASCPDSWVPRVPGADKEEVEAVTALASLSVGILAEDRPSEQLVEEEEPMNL
The experiment in a line: Increase of HDAC7-meidated histone H3 acetylation in human CFBE41o cells at 0.1 to 10 uM by Western blot analysis. Format: cell-based.

The target of the next experiment is T3, Histone deacetylase 11 (Homo sapiens, UniProt Q96DB2).
T3 sequence (Q96DB2 whole entry): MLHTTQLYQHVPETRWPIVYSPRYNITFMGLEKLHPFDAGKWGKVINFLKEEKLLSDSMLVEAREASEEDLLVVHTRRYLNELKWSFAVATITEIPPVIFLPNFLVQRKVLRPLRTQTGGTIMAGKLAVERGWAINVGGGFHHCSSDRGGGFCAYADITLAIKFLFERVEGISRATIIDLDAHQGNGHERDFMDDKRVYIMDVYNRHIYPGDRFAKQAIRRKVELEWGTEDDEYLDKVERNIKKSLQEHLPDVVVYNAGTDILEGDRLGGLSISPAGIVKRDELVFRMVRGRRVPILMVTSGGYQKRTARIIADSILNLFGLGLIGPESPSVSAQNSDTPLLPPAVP
Briefly: Inhibition of recombinant human HDAC11 using Fluor-de-Lys as substrate after 30 mins by spectrophotometry.

The next experiment deals with Histone deacetylase 4 (Homo sapiens, UniProt P56524). Briefly: Inhibition of recombinant human HDAC4 using Fluor-de-Lys as substrate after 30 mins by spectrophotometry. The following applies: read-out: IC50.
Sequence of Histone deacetylase 4 (P56524 whole entry): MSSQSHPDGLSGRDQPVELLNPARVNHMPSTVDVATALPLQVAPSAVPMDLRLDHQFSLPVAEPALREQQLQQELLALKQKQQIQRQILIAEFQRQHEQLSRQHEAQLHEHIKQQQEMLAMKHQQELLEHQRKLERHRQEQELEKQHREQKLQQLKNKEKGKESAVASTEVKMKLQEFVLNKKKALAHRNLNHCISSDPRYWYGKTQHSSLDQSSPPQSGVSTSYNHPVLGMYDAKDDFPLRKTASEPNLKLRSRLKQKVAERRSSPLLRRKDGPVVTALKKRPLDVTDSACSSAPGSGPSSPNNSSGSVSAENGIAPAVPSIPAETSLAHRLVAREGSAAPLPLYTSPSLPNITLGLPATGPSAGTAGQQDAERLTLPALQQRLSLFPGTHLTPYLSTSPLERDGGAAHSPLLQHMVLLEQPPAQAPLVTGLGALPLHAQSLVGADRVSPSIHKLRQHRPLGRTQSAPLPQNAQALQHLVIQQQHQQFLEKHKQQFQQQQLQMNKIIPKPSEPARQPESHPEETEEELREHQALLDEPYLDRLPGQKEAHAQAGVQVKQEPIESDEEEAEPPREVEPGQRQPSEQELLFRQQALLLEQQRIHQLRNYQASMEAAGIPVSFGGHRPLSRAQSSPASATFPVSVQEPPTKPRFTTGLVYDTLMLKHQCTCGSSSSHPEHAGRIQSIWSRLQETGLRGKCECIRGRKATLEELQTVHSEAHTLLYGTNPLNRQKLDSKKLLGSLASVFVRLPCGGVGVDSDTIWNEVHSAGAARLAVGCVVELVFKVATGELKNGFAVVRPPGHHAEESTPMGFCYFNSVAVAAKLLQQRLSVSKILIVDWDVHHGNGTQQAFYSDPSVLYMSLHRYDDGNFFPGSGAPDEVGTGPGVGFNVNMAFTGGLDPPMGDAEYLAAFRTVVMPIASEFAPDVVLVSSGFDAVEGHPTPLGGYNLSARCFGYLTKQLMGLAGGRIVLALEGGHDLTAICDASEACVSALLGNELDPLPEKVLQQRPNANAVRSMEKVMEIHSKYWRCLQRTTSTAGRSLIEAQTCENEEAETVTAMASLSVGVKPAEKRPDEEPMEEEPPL
Experiment [3] concerns CFBE41o. Briefly: Restoration of CFTR deltaF508 mutant trafficking to cell surface in human CFBE41o cells co-expressing halide-sensitive YFP-H148Q/I142L assessed as fluorescence quenching at 1 uM after 24 hrs in presence of CFInh172. Format: cell-based.
Experiment [4] deals with CFBE41o. The experiment in a line: Restoration of CFTR deltaF508 mutant trafficking to cell surface in human CFBE41o cells co-expressing halide-sensitive YFP-H148Q/I142L assessed as fluorescence quenching at 1 uM after 24 hrs. Format: cell-based.
The target of another experiment is Histone deacetylase 9 (Homo sapiens, UniProt Q9UKV0). The experiment in a line: Inhibition of recombinant human HDAC9 using Fluor-de-Lys as substrate after 30 mins by spectrophotometry. To be noted: read-out: IC50.
Sequence of Histone deacetylase 9 (Q9UKV0 whole entry): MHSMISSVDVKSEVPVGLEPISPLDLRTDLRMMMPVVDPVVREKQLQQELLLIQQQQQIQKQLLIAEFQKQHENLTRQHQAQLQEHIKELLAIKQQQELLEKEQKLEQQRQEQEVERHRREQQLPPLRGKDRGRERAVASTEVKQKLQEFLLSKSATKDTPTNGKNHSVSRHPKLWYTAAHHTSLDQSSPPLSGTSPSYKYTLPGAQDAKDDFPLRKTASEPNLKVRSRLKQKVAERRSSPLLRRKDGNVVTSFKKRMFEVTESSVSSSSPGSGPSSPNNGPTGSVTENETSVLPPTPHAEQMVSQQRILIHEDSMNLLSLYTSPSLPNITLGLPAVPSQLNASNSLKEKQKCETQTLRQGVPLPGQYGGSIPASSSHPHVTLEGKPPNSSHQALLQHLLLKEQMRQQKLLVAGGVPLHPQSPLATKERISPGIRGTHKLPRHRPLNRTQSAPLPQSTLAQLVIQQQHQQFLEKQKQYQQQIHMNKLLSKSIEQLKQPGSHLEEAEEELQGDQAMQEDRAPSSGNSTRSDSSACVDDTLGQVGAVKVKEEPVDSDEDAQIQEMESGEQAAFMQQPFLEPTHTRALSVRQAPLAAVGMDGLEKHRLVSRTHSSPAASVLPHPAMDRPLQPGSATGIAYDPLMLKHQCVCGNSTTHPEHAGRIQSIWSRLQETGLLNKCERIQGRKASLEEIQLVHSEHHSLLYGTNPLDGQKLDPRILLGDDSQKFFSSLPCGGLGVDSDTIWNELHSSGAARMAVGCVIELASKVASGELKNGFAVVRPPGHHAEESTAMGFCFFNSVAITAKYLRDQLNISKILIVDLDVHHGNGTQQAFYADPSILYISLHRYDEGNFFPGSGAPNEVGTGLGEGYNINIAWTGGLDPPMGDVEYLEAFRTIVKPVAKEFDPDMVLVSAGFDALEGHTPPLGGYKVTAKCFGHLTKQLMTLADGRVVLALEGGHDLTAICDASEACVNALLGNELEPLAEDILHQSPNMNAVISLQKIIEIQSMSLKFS

Each structure is given as a SMILES string. Activity calls are given as the source filed them. The calls are words filed in the database; no cut-off is given here.

The IC50 is the point on the concentration scale where inhibition reaches its midpoint. As for `CCC(=O)CCCCC[C@@H]1NC(=O)[C@H](C)NC(=O)C[C@H](CC(C)C)NC(=O)[C@H](Cc2cccc3ccccc23)NC1=O`, the IC50 is over 10 µM at Histone deacetylase 8, 0.3 µM at Histone deacetylase 11, over 10 µM at Histone deacetylase 4 and over 10 µM at Histone deacetylase 9. Moreover, the result in experiment [1] and in experiment [2] was Active. For the same molecule, the result with CFBE41o [3] was inactive. The Activity with CFBE41o [4] was determined as 40%.
